# Assay results from patent US20110065734A1, “NOVEL BIFUNCTIONAL COMPOUNDS WHICH INHIBIT PROTEIN KINASES AND HISTONE DEACETYLASES” (4SC AG, priority 2007, published 2011).
# pEC50, pIC50: −log10 of the molar value. Counter-ions that a name gives are not always drawn.
# Experiments:
# [1] = system: histone H3 hyperacetylation in HeLa cervical carcinoma cells; assay: Cellular histone H3 hyperacetylation assay; assay type: cell-based; conditions: Homo sapiens, 24 h, only a range over the listed compounds is given, read-out: Induction of histone H3 hyperacetylation in HeLa cervical carcinoma cells EC50
# Excerpt: To assess the cellular efficacy of a histone deacetylase inhibitor in vitro, an assay was set up in black clear-bottom 96-well plates and optimized for use on the Cellomics “ArrayScan II” platform for a quantitative calculation of histone acetylation. The protocol uses a polyclonal rabbit antibody, specifically binding to acetylated lysine 1-20 of human histone H3 on fixed cells with an Alexa Fluor 488 labeled goat anti rabbit-IgG used for counterstaining (Beckers et al. Int J. Cancer 121, 1138, 2007).
# 5×10^3 HeLa cervical carcinoma cells/well (ATCC. CCL-2) in 200 μl Dulbecco rs modified Eagle's medium (DMEM) containing 10% fetal calf serum are seeded at day 1 in Packard view plates and incubated for 24 h under standard cell culture conditions. On day 2, 1 μl test compound (200× final concentration) is added and incubation continued for further 24 h. On day 3, the culture medium is discarded and attached cells fixed for 15 min at room temperature by addition of 100 μl fixation buffer (3.7% v:v formaldehyde in phosphate buffered saline/PBS). After discarding the fixation buffer and one wash with blocking solution (1% BSA, 0.3% Tween 20 in PBS), cells are permeabilized at room temperature by addition of 100 μl/well permeabilization buffer (30.8 mM NaCl, 0.54 mM Na2HPO4, 0.31 mM KH2PO4, 0.1% v:v Triton X-100) for 15 min at room temperature. After discarding the permeabilization buffer and washing twice with 100 μl/well blocking solution at room temperature, the 1st antibody (anti-K^1-20 histone H3 antibody, Calbiochem No. 382158) in blocking solution (50 μl/well) is added. After incubation for 1 h at room temperature, the wells are washed twice at room temperature with 100 μl/well blocking solution before addition of the 2nd antibody (goat-anti-rabbit Alexa Fluor 488; MoBiTec No. A-11008) in blocking solution (50 μl/well). After further incubation for 1 h at room temperature, wells are washed twice with 100 μl/well blocking solution at room temperature. Finally, 100 μl/well PBS are added and image analysis performed on the Cellomics “ArrayScan II” platform. For EC50 determination, the percentage of positive cells showing nuclear fluorescence is determined and EC50 calculation done from concentration-effect curves by means of non-linear regression. For calibration, a positive (reference HDAC inhibitors like SAHA or NVP LBH-589) and a negative control were included.
# A549 NSCLC cell line = assay: Cellular cytotoxicity assay (Alamar Blue), A549; assay type: cell-based; conditions: Homo sapiens, A549; 72 h; only a range over the listed compounds is given; read-out: Cytotoxicity towards A549 NSCLC cell line IC50
# Description: (§1) The anti-proliferative activity of the chimeric HDAC and protein kinase inhibitory chimeric compounds of the present invention was evaluated using HeLa cervical carcinoma, A549 NSCLC, SKOV3 ovarian carcinoma, Cal27 head and neck cancer, K562 chronic myeloid leukemia (CML) and EOL1 acute hypereosinophilic myeloid leukemia, cell lines. For quantification of cellular proliferation/living cells the Alamar Blue (Resazurin) cell viability assay was applied (O'Brien et al. Eur Biochem. 267, 5421-5426, 2000). In this assay Resazurin is reduced to the fluorescent resorufin by cellular dehydrogenase activity, correlating with viable, proliferating cells. The examples were dissolved as 20 mM solutions in dimethylsulfoxide (DMSO) and subsequently diluted in semi-logarithmic steps. Cell lines were seeded at respective density into 96 well flat bottom plates in a volume of 200 μl per well. 24 h after seeding 1 μl each of the compound dilutions were added into each well of the 96 well plate. Each compound dilution was tested as quadruplicates. Wells containing untreated control cells were filled with […] DMEM medium containing 0.5% v:v DMSO. The cells were then incubated with the substances for 72 h at 37° C. in a humidified atmosphere containing 5% carbon dioxide. To determine the viability of the cells, 20 μl of an Resazurin solution (Sigma; 90 mg/l) were added. After 4 h incubation at 37° C. the fluorescence was measured at an extinction of 544 nm and an emission of 590 nm. For the calculation of the cell viability the emission value from untreated cells was set as 100% viability and the emission rates of treated cells were set in relation to the values of untreated cells. Viabilities were expressed as % values. The corresponding IC50 values of the compounds for cytotoxic activity are determined from the concentration-effect curves by means of non-linear regression.
# [2] = system: SKOV3 ovarian carcinoma cell line; assay: Cellular cytotoxicity assay (Alamar Blue), SKOV3; assay type: cell-based; conditions: Homo sapiens, SK-OV-3; 72 h; only a range over the listed compounds is given; read-out: Cytotoxicity towards SKOV3 cell line IC50
# Description: as §1
# [3] = target: T1, recombinant HDAC1 isolated from HEK293 cells with heterologous HDAC1 expression (Homo sapiens, UniProt Q13547); assay: Fluorimetric rHDAC1 activity assay; assay type: biochemical; conditions: only a range of IC50 over the compounds given; read-out: rHDAC1 inhibitory activity IC50
# T1 construct: made in house
# [4] = system: HeLa cervical carcinoma cell line; assay: Cellular cytotoxicity assay (Alamar Blue), HeLa; assay type: cell-based; conditions: Homo sapiens, 72 h, only a range over the listed compounds is given, read-out: Cytotoxicity towards HeLa cervical cell line IC50
# Description: as §1
# T1 sequence (Q13547 whole entry): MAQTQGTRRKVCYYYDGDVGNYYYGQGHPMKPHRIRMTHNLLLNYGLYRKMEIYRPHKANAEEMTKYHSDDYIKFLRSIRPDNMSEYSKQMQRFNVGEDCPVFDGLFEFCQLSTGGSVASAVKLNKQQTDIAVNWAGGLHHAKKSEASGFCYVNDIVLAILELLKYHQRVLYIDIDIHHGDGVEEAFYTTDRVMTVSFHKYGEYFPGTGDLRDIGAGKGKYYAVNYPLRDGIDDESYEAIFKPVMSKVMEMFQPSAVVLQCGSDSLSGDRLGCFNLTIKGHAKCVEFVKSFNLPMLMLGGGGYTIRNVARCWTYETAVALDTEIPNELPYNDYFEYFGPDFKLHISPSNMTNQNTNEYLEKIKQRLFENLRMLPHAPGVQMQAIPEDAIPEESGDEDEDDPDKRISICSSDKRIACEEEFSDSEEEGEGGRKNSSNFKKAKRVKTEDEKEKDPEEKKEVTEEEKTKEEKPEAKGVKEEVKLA
melting point,pIC50 [3],SMILES,pIC50 (A549 NSCLC cell line),further results
224.8 to 224.9 °C,,"Nc1ccccc1NC(=O)c1ccc(C(=O)Nc2cccc(Nc3nc(-c4cccnc4)cs3)c2)cc1 (hydrate or solvate) [[18], N^1-(2-aminophenyl)-N^4-(3-(4-(pyridin-3-yl)thiazol-2-ylamino)phenyl)terephthalamide hydrate]",,
250 °C (dec.),,"Nc1ccccc1NC(=O)c1ccc(-c2ccc3ncnc(Nc4ccc(OCc5cccc(F)c5)c(Cl)c4)c3c2)o1 [[5], 5-{4-[3-Chloro-4-(3-fluorobenzyloxy)phenylamino]-quinazolin-6-yl}furan-2-carboxylic acid (2-amino-phenyl)amide]",≤ 5.96,pEC50 [1]: ≤ 5.44; pIC50 [2]: ≤ 6.00
,≤ 7.45,"Nc1ccccc1NC(=O)/C=C/c1ccc(-c2ccc3ncnc(Nc4ccc(OCc5cccc(F)c5)c(Cl)c4)c3c2)cc1 [[10], (E)-N-(2-aminophenyl)-3-(4-(4-(3-chloro-4-(3-fluorobenzyloxy)phenylamino)quinazolin-6-yl)phenyl)acrylamide]",≤ 5.96,
205.5 °C,,"O=C(NO)c1ccc(C(=O)Nc2cccc(Nc3nc(-c4cccnc4)cs3)c2)cc1 [[17], N^1-hydroxy-N^4-(3-(4-(pyridin-3-yl)thiazol-2-ylamino)phenyl)terephthalamide]",≤ 5.53,
100.6 °C,5.85 to 7.11,"O=C(/C=C/c1ccc(C(=O)Nc2cccc(Nc3nc(-c4cccnc4)cs3)c2)cc1)NO [[22], (E)-4-(3-(hydroxyamino)-3-oxoprop-1-enyl)-N-(3-(4-(pyridin-3-yl)thiazol-2-ylamino)phenyl)benzamide]",,
150.5 to 152.5 °C,,"Cc1ccc(NC(=O)c2ccc(C(=O)Nc3ccccc3N)nc2)cc1Nc1nccc(-c2cccnc2)n1 [[23], N^2-(2-aminophenyl)-N^5-(4-methyl-3-(4-(pyridin-3-yl)pyrimidin-2-ylamino)phenyl)pyridine-2,5-dicarboxamide]",,
242.4 °C,,"Cc1ccc(NC(=O)c2ccc(C(=O)Nc3ccccc3N)s2)cc1Nc1nc(-c2cccnc2)cs1 [[27], N^2-(2-aminophenyl)-N^5-(4-methyl-3-(4-(pyridin-3-yl)thiazol-2-ylamino)phenyl)thiophene-2,5-dicarboxamide]",,
205.6 °C,,"O=C(/C=C/c1ccc(C(=O)Nc2cccc(Nc3nc(-c4cccnc4)cs3)c2)s1)NO [[34], (E)-5-(3-(hydroxyamino)-3-oxaprop-1-enyl)-N-(3-(4-(pyridin-3-yl)thiazol-2-ylamino)phenyl)thiophene-2-carboxamide]",≤ 5.53,
190 to 194.2 °C,≤ 8.19,"C#Cc1cccc(Nc2ncnc3cc(NC(=O)c4cccc(/C=C/C(=O)Nc5ccccc5N)c4)ccc23)c1 [[42], (E)-3-(3-(2-aminophenylamino)-3-oxoprop-1-enyl)-N-(4-(3-ethynylphenylamino)quinazolin-7-yl)benzamide]",,
,≤ 8.19,"C#Cc1cccc(Nc2ncnc3ccc(OCc4ccc(C(=O)Nc5ccccc5N)cc4)cc23)c1 [[44], N-(2-aminophenyl)-4-((4-(3-ethynylphenylamino)quinazolin-6-yloxy)methyl)benzamide]",,

# More lines, now with the values behind:
SMILES,melting point,pIC50 [3],pIC50 (A549 NSCLC cell line),further results
"Nc1ccccc1NC(=O)c1ccc(C(=O)Nc2cccc(Nc3nc(-c4cccnc4)cs3)c2)s1 (as salt: salt) [[28], N^2-(2-aminophenyl)-N^5-(3-(4-(pyridin-3-yl)thiazol-2-ylamino)phenyl)thiophene-2,5-dicarboxamide]",222.3 °C,,,
"Nc1ccccc1NC(=O)CCc1ccc(-c2ccc3ncnc(Nc4ccc(OCc5cccc(F)c5)c(Cl)c4)c3c2)cc1 [[12], N-(2-aminophenyl)-3-(4-(4-(3-chloro-4-(3-fluorobenzyloxy)phenylamino)quinazolin-6-yl)phenyl)propanamide]",,≤ 7.45,≤ 5.96,
"Nc1ccccc1NC(=O)/C=C/c1ccc(-c2ccc3ncnc(Nc4ccc(OCc5cccc(F)c5)c(Cl)c4)c3c2)o1 [[13], (E)-N-(2-aminophenyl)-3-(5-(4-(3-chloro-4-(3-fluorobenzyloxy)phenylamino)quinazolin-6-yl)furan-2-yl)acrylamide]",,≤ 7.45,≤ 5.96,
"Cc1ccc(NCc2ccc(/C=C/C(=O)NO)cc2)cc1Nc1nccc(-c2cccnc2)n1 [[16], (E)-N-Hydroxy-3-(4-{[4-methyl-3-(4-pyridin-3-yl-pyrimidin-2-ylamino)-phenylamino]methyl}-phenyl)-acrylamide]",201 to 205 °C,5.85 to 7.11,≤ 5.53,pIC50 [4]: ≤ 5.94; pEC50 [1]: 5.00 to 5.77
"Cc1ccc(NC(=O)c2ccc(C(=O)Nc3ccccc3N)cc2)cc1Nc1nc(-c2cccnc2)cs1 [[21], N^1-(2-aminophenyl)-N^4-(4-methyl-3-(4-(pyridin-3-yl)thiazol-2-ylamino)phenyl)terephthalamide]",147.1 °C,,,
"Nc1ccccc1NC(=O)c1ccc(C(=O)Nc2cccc(Nc3nccc(-c4cccnc4)n3)c2)cc1 [[31], N-(2-Amino-phenyl)-N′-[3-(4-pyridin-3-yl-pyrimidin-2-ylamino)-phenyl]-terephthalamide]",,,≤ 5.53,
"Nc1ccccc1NC(=O)c1ccc(C(=O)Nc2ccc(Cl)c(Nc3nccc(-c4cccnc4)n3)c2)cc1 [[32], N-(2-Amino-phenyl)-N′-[4-chloro-3-(4-pyridin-3-yl-pyrimidin-2-ylamino)-phenyl]-terephthalamide compound with hydrochloric acid]",,,≤ 5.53,
"C#Cc1cccc(Nc2ncnc3ccc(NC(=O)c4ccc(C(=O)Nc5ccccc5N)cc4)cc23)c1 [[37], N-(2-Amino-phenyl)-N′-[4-(3-ethynyl-phenylamino)-quinazolin-6-yl]-terephthalamide]",253 to 258 °C,,≤ 6.62,pIC50 [4]: ≤ 6.30; pIC50 [2]: ≤ 6.25
"C#Cc1cccc(Nc2ncnc3ccc(NC(=O)c4ccc(C(=O)Nc5ccccc5N)s4)cc23)c1 [[38], Thiophene-2,5-dicarboxylic acid 2-[(2-amino-phenyl)-amide]-5-{[4-(3-ethynyl-phenylamino)-quinazolin-6-yl]-amide}]",,,≤ 6.62,pIC50 [4]: ≤ 6.30; pIC50 [2]: ≤ 6.25
"C#Cc1cccc(Nc2ncnc3cc(NC(=O)c4ccc(C(=O)Nc5ccccc5N)cc4)ccc23)c1 [[41], N-(2-Amino-phenyl)-N′-[4-(3-ethynyl-phenylamino)-quinazolin-7-yl]-terephthalamide]",,,,pIC50 [2]: ≤ 6.25
"Nc1ccccc1NC(=O)c1ccc(COc2ccc3ncnc(Nc4cccc(Br)c4)c3c2)cc1 [[43], N-(2-aminophenyl)-4-((4-(3-bromophenylamino)quinazolin-6-yloxy)-methyl)benzamide]",215 to 218 °C,,,
